Results from patent US9708370B2, “Azapeptides as CD36 binding compounds” (VALORISATION-RECHERCHE, LIMITED PARTNERSHIP, priority 2007, dated 2017).
Starred links: 1 amine or outer side, 2 acyl side, 3 side chain; linkers in the order of their positions; H or OH if unused. Non-standard residues stand in square brackets, D forms with d. Residues, ends and D or L forms follow the SMILES beside them. azaTyr = O=C(N(Cc1ccc(O)cc1)N[*:1])[*:2]

Target: CD36 (Rattus norvegicus (Rat), UniProt Q07969)
Test: CD36 receptor covalent photolabelling binding assay, competition with [125I]Tyr-Bpa-Ala-hexarelin on rat cardiac membranes

Chain of CD36 (Q07969 whole entry): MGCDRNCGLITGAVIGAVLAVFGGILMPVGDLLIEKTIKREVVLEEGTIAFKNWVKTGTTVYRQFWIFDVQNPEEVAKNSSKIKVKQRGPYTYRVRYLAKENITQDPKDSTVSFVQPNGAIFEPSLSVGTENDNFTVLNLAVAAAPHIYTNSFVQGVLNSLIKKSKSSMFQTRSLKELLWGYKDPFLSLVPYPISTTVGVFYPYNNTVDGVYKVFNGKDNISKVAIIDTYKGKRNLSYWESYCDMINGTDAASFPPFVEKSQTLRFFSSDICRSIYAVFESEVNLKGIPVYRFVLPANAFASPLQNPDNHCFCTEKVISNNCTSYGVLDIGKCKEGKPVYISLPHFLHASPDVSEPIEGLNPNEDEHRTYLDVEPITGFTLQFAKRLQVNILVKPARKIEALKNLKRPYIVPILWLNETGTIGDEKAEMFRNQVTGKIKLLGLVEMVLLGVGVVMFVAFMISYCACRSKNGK

C[C@H](NC(=O)[C@@H](Cc1c[nH]c2ccccc12)NC(=O)[C@@H](N)Cc1cnc[nH]1)C(=O)NN(Cc1ccc(O)cc1)C(=O)N[C@H](Cc1ccccc1)C(=O)N[C@@H](CCCCN)C(N)=O [DBG178p, His-D-Trp-Ala-azaTyr-D-Phe-Lys-NH2] (H-H[dW]A[azaTyr][dF]K-NH2)
IC50 (Table 3, rat cardiac membranes, [125I]Tyr-Bpa-Ala-hexarelin as radioligand, read-out: IC50, binding affinity of aza peptide derivatives towards CD36): 28 µM | binding activity/affinity at CD36 in words (compared with parent peptide GHRP-6 or hexarelin): maintaining the binding activity
